From ChEMBL document CHEMBL1949543, “Synthesis and evaluation of novel monosubstituted sulfonylurea derivatives as antituberculosis agents” (Eur J Med Chem, 2012)
Converted amounts (≈) assume the structure as drawn.

System: Mycobacterium tuberculosis variant bovis
Experiment: Antituberculosis activity against Mycobacterium bovis ATCC 25523
Type: functional

Structure (SMILES)	MIC
Cc1ccnc(NC(=O)NS(=O)(=O)c2cc(NC(=O)CCl)ccc2Cl)n1	10 µg/mL (≈ 23.9 µM)
COc1ccnc(NC(=O)NS(=O)(=O)c2cc(NC(=O)CCl)ccc2Cl)n1	10 µg/mL (≈ 23 µM)
